Experimental findings from patent publication US5900476A, “Therapeutic domains of van Willebrand factor” (The Scripps Research Institute, priority 1992, dated 1999) are described below.

The test system of assay [1] is GPIbα. In words: Inhibition of 125I LJ-Ib1 antibody binding to platelets, no modulator. How it is done:
(§1) To assess the inhibitory activity of p5E extracts on antibody binding, a concentration of LJ-Ib1 was first selected which would, in the absence of p5E extracts, provide half-maximal binding.
LJ-Ib1 was iodinated by the procedure of Fraker, D.J. et al., Biochem. Biophys. Res. Commun., 80, 849-857 (1978) using I^125 from Amersham, Arlington Heights, IL and Iodogen (Pierce Chemical Co., Rockford, IL). Washed platelets were prepared by the albumin density gradient technique of Walsh, et al., Br. J. Haematol., 36, 281-298 (1977), and used at a count of 1 x 10^8 /ml.
The p5E polypeptide extract was purified according to the procedure of Example 4 including final purification of the urea-solubilized inclusion body preparation by dialysis against 6.0M guanidine and urea solutions followed by Q-Sepharose® chromatography.
To evaluate binding, platelets were incubated for 30 minutes at 22-25° C. with LJ-Ib1 (10 μg/ml) and concentrations of purified p5E protein (.002-10.0 μMolar) as indicated in FIGS. 3A and 3B. Inhibition was plotted in the presence of 2 μg/ml botrocetin, Sigma Chemical Co., St. Louis, MO, (FIG. 3B) and in the absence of botrocetin (FIG. 3A).
Less than 5 percent of the ^125 I label bound to the platelets was contributed by labelled substances other than LJ-Ib1 as determined by binding competition experiments in the presence of a 100 fold excess of unlabelled LJ-Ib1. Background labelling was subtracted from data points. Binding of ^125 I LJ-Ib1 was expressed as a percentage of a control assay lacking recombinant polypeptides. […] It is known that botrocetin induces in circulating multisubunit von Willebrand factor and single subunits thereof a conformational change which enhances or permits binding to the GPIbα receptor. […] Structural similarity is therefore indicated.
The interaction the mutant molecules with GPIbα was evaluated using an assay (Sugimoto, M. et al., Biochemistry, 30, 5202-5209 (1991)) based on inhibition of binding of antibody LJ-Ib1 to platelets. The corresponding IC50 values (concentration of fragment required to inhibit 50% of antibody binding) are presented in Table 2 (no modulator) and Table 3 (botrocetin added).
The interaction of rvWF^441-733 with GPIbα was measured by the ability of rvWF^441-733 to inhibit the binding of an anti-GPIbα monoclonal antibody, LJ-IB1, to platelets. This assay, previously described in detail, (Sugimoto, M. et al., Biochemistry, 30, 5202-5208 (1991)) offers the advantage that the binding of LJ-Ib1, unlike that of native vWF, is not dependent on the presence of modulators, like ristocetin or botrocetin. Binding by vWF^441-733 to GPIbα is thought to block the region of GPIbα to which LJ-Ib1 binds.

In assay [2] the test system is NMC-4 antibody. In words: Immunoblotting with conformation-dependent monoclonal antibody NMC-4. It counts as binding, murine. Here is the method:
Polypeptides expressed from p7E, p7D and pJD18 were further characterized by immunoblotting ("Western blotting") according to a standard procedure Burnett et al., A. Anal. Biochem., 112, 195-203, (1981) and as recommended by reagent suppliers. Samples containing approximately 10 μg of protein from the urea-solubilized and dialyzed inclusion body extracts of host cells (containing p7E, p7D and pJD18 plasmids) were subjected to electrophoresis on 10% polyacrylamide gels, Laemli, U.K. Nature, 227, 680-685 (1970), in the presence of 2% concentration of sodium dodecyl sulfate.
The proteins were blotted and immobilized onto a nitrocellulose sheet (Schleicher and Schuell, Keene, NH) and the pattern was then visualized using immunoreactivity.
The secondary antibody (^125 I-rabbit anti-mouse IgG), labelled by the method of Fraker, P.J. et al. Biochem. Biophys. Res. Commun., 80, 849-857 (1978)), was incubated for 60 minutes at 25° C. on the nitrocellulose sheet. After rinsing, the sheet was developed by autoradiography.
NMC-4 however, has as its epitope the domain of the von Willebrand factor subunit which contains the glycoprotein Ib binding site. […] Id. at 17903. […]
For orientation: Immunoblotting shows a protein as a band on a membrane.

The test system of assay [3] is GPIbα. In words: Inhibition of 125I LJ-Ib1 antibody binding to platelets in the presence of botrocetin. Conditions: botrocetin 2 μg/ml; LJ-Ib1 10 μg/ml; purified p5E protein; read-out: 50% inhibition of 125I LJ-Ib1 binding to platelets. How it is done:
as §1
LJ-Ib1 was iodinated by the procedure of Fraker, D.J. et al., Biochem. Biophys. Res. Commun., 80, 849-857 (1978) using I^125 from Amersham, Arlington Heights, IL and Iodogen (Pierce Chemical Co., Rockford, IL). Washed platelets were prepared by the albumin density gradient technique of Walsh, et al., Br. J. Haematol., 36, 281-298 (1977), and used at a count of 1 x 10^8 /ml. […]
Less than 5 percent of the ^125 I label bound to the platelets was contributed by labelled substances other than LJ-Ib1 as determined by binding competition experiments in the presence of a 100 fold excess of unlabelled LJ-Ib1. […] Binding of ^125 I LJ-Ib1 was expressed as a percentage of a control assay lacking recombinant polypeptides. […]
The interaction the mutant molecules with GPIbα was evaluated using an assay (Sugimoto, M. et al., Biochemistry, 30, 5202-5209 (1991)) based on inhibition of binding of antibody LJ-Ib1 to platelets. […]
The interaction of rvWF^441-733 with GPIbα was measured by the ability of rvWF^441-733 to inhibit the binding of an anti-GPIbα monoclonal antibody, LJ-IB1, to platelets. […]

Where [4] appears, read: oxidized form (Cys509-Cys695 bond), absence of modulators, range of results over n experiments, read-out: (Oxidized) IC50.
[5] abbreviates: reduced/alkylated form, absence of modulators, range of results over n experiments, read-out: (Reduced/alkylated) IC.

As for “rvWF^441-696: C-terminal deletion fragment of the p5E vWF polypeptide terminating at residue 696”, the results for the IC50 in assay [1] (setting [4]) and in assay [1] (setting [5]) were 1 to 1.3 µM and greater than 4 µM, respectively. Besides, in assay [1] (reduced and alkylated form, Table 2), the “Ability to inhibit LJ-Ib1 binding to platelets / affinity for GPIbα relative to rvWF^441-733” value is reported as “greatly reduced ability to inhibit LJ-Ib1 binding to platelets”.
For the substance “rvWF^441-700: C-terminal deletion fragment of the p5E vWF polypeptide terminating at residue 700”, the IC50 in assay [1] (setting [4]) was 2 to 3.1 µM; in assay [1] (setting [5]) it was 0.5 µM.
The like results for “rvWF^441-704: C-terminal deletion fragment of the p5E vWF polypeptide terminating at residue 704” were, in that order, 2.6 to 3.2 µM and 0.03 to 0.04 µM.
Take “rvWF^441-733: recombinant vWF residue 441-733 fragment from p5E; Cys 459, 462, 464, 471, 474 replaced by Gly; Cys509-Cys695 retained; oxidized or reduced/alkylated”: the “IC50 of reduced and alkylated form relative to oxidized form” value in assay [1] (absence of modulator, FIG. 3A) is “more than ten fold lower”. Besides, the IC50 in assay [1] (setting [4]) is 3 to 5 µM; in assay [1] (setting [5]), 0.07 to 0.3 µM; in assay [1] (without botrocetin, LJ-Ib1 10 μg/ml, purified p5E protein, read-out: Fifty percent inhibition of 125I LJ-Ib1 binding to platelets) it was 10 µM; in assay [3], less than 0.1 µM. In addition, the “Increase in binding affinity for NMC-4 compared to cysteine-free p7E species” value in assay [2] (nonreducing conditions, single chain species, immunoblot) was roughly 120 fold. In assay [2] (reducing conditions, 100 mM DTT), the “Affinity for NMC-4 after electrophoresis under reducing conditions” value is “remarkably decreased affinity for NMC-4”.
